Measurements reported in patent publication US6548492B1, “Process for formulation of carbapenem antibiotic compositions” (Merck & Co., Inc., priority 1999, dated 2003).

Key:
[1] = Stability and hygroscopicity of the bulk monosodium salt carbapenem on storage; assay type: physicochemical
Procedure: and a process for the preparation thereof.
During the manufacture of bulk compound products such as beta-lactam and carbapenem antibiotics, the pharmaceutical compound is prepared by chemical synthesis from raw materials in large quantities. As with many carbapenem compounds, the compound in accordance with formula I is prepared in large batches as a monosodium salt. The compound is a weakly crystalline solid, hygroscopic at ambient conditions, and is unstable at room and refrigerated temperatures. Therefore, the bulk compound must be stored at a temperature of about −20° C. to prevent degradation into dimer and open ring by-products.

[2] = cited from earlier work

hygroscopicity ([1]; ambient conditions, weakly crystalline solid): hygroscopic | stability at room and refrigerated temperatures ([1]; bulk monosodium salt): unstable
SMILES: CC(O)C1C(=O)N2C(C(=O)[O-])=C(SC3CNC(C(=O)Nc4cccc(C(=O)O)c4)C3)C(C)C12.[Na+] (stereo not shown) [formula I]
stability at ambient conditions ([2]; 20° C. and 1 atmosphere, monosodium salt): relatively unstable | stability at temperatures above about −20° C. ([2]; undergoes dimerization and hydrolysis to dimers and open ring by-products): remains unstable
